Results as given in PMC8085414, “L-Carnitine Production Through Biosensor-Guided Construction of the Neurospora crassa Biosynthesis Pathway in Escherichia coli” (Frontiers in Bioengineering and Biotechnology, 2021).

Molecular target: T1, TMABADH.1S (Neurospora crassa, UniProt Q7RYT1)
T1 construct: gene NCU00378; 495 AA short annotation of NCU00378; codon-harmonized synthetic gene in pECXT99A, E. coli DH5alpha crude extract
T1 sequence (Q7RYT1 52-546): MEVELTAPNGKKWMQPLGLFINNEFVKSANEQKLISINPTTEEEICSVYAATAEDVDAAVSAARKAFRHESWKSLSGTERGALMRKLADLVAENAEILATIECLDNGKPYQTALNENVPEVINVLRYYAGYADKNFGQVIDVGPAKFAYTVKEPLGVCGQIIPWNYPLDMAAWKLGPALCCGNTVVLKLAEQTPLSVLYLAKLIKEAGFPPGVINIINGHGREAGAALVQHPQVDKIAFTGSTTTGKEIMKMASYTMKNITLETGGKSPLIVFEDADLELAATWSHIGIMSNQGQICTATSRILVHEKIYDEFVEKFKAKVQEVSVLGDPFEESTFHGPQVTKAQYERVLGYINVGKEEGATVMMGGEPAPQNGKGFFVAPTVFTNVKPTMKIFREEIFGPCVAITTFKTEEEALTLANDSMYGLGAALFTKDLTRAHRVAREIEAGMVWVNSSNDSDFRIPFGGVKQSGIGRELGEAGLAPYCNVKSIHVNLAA
Experiment: NADH formation at […] nm, E. coli crude extract
Assay type: biochemical
Conditions: 2 mM NAD+, 0.4 mM TMABA iodide, glycine-NaOH pH 9.5, 30 °C

NC(=O)c1ccc[n+]([C@@H]2O[C@H](COP(=O)(O)OP(=O)(O)OC[C@H]3O[C@@H](n4cnc5c(N)ncnc54)[C@H](O)[C@@H]3O)[C@@H](O)[C@H]2O)c1 [NAD^+]
NADH formation at 340 nm, E. coli crude extract: co-conversion of NAD^+ to NADH in the TMABADH reaction
